Consider 9 molecules from patent publication US5597894A (The Louisiana State University Medical Center Foundation, priority 1995, dated 1997).

The test system of series [1] is rat pituitary cells, which express SSTR2. In words: Inhibition of growth hormone (GH) release from acutely dispersed rat pituitary cells. In kind it is cell-based. The note with it: in the presence of 1 nM GRF(1-29)NH2, 3 h at 37° C., number in brackets = samples tested. From the text: Pituitaries from adult Charles River CD male rats (Wilmington, Mass.) housed under controlled conditions (lights on from 0500-1900 hrs), were dispersed and cultured using aseptic technique as previously described with modifications (Hoefer et al., Mol. Cell Endocrinol., 35:229, (1984); Ben-Jonathan et al., i Methods Enzymol., 103:249, (1983); and Heiman et al., Endocrinology, 116:410, (1985).
Briefly, pituitaries were removed from decapitated rats, sectioned, and then placed in a siliconized, liquid scintillation vial containing 2 ml 0.2% trypsin (Worthington Biochemicals, Freehold, N.J.) in sterile-filtered Krebs-Ringer bicarbonate buffer supplemented with 1% bovine serum albumin, 14 mM glucose, modified Eagle medium (MEM) vitamin solution and MEM amino acids (Gibco Laboratories, Grand Island, N.Y.) (KRBGA). All glassware was siliconized as described by Sayers et al., Endocrinology, 88:1063, (1971). The pituitary fragments were incubated in a water bath for 35 min at 37° C. with agitation. The vial contents were then poured into a scintillation vial containing 2 ml 0.1% DNase (Sigma Chemical Co., St. Louis, Mo.) in KRBGA and incubated for 2 min at 37° C. with agitation. After incubation the tissue was decanted into a 15 ml centrifuge tube and allowed to settle. The medium was discarded, and the pituitary sections were washed 3 times with 1 ml fresh KRBGA. The cells were dispersed in 2 ml 0.05% LBI (lima bean trypsin inhibitor, Worthington Biochemicals) by gently drawing the fragments into and expelling them out of a siliconized, fire-polished Pasteur pipette. Dispersed cells were filtered through a 630 μm diameter Nylon mesh (Tetko, Elmsford, N.Y.) into a fresh 15 ml centrifuge tube. An additional 2 ml of 0.05% LBI solution was used to rinse the first tube and was transferred to the second tube with filtering.
The dispersed cells were further diluted with approximately 15 ml sterile-filtered Dulbecco's modified Eagle medium (GIBCO), supplemented with 2.5% fetal calf serum (GIBCO), 3% horse serum (GIBCO), 10% fresh rat serum (stored on ice for no longer than 1 h) from the pituitary donors, 1% MEM non-essential amino acids (GIBCO), gentamycin ([…]; Sigma) and nystatin (10,000 U/ml; GIBCO). The cells were poured into a 50 ml round-bottomed glass extraction flask with a large diameter opening, counted with a hemacytometer (approximately 2,000,000 cells per pituitary), and randomly plated at a density of 200,000 cells per well (Co-star cluster 24; Rochester Scientific Co., Rochester, N.Y.). The plated cells were maintained in Dulbecco's medium in a humidified atmosphere of 95% air and 5% CO2 at 37° C. for 4 days to 5 days.
In preparation for a hormone challenge, the cells were washed 3 times with medium 199 (GIBCO) to remove old medium and floating cells. […] After 3 h at 37° C. in an air/carbon dioxide atmosphere (95/5%), the medium was removed and stored at -20 ° C. until assayed for hormone content. IC50 's (a concentration that provides half-maximal inhibition of GH release) were calculated using the computer program SigmaPlot (Jandel Scientific, San Rafael, Calif.).

Series [2] addresses T1, type 2 somatostatin receptors (SSTR2) (Homo sapiens, UniProt P30874).
T1 construct: IMR32 membrane fractions (100-150 μg) were incubated with 0.015 pM; host or cells: IMR32 human neuroblastoma cells (membrane fractions)
As to the kind of experiment: Somatostatin receptor binding assay on IMR32 membranes. Here is the method: The IMR32 cells were maintained in minimal essential media (MEM) supplemented with 15% heat-inactivated fetal bovine serum, 100 U/ml penicillin, 100 μg/ml streptomycin and nonessential amino acids. Cultured cells were harvested in a buffer containing 20 mM HEPES, 2 mM MgCl2, 5 mM EDTA, 1 mM 2-mercaptoethanol, 150 mM NaCl, and 50 μg/ml phenylmethylsulfonylfluoride (PMSF), (pH 7.4) at a concentration of 1×10^6 cells/ml. Cell membranes were prepared according to the method of O'Dorisio, M. S. et al., Cell Growth and Differentiation, 5:1-8, 1994. Membrane fractions were prepared by differential centrifugation and the membranes resuspended in buffer and stored at -80° for receptor binding studies.
Binding assays were carried out according to the method of O'Dorisio et al., supra. […] The reaction was terminated by centrifugation at 11,000×G for 3 minutes. Supernatant fluid was aspirated and the radioactivity of bound ligand in the pellet quantified in a gamma counter.
Specific binding was calculated using the difference between total and non-specific (in the presence of 1 μM unlabeled ligand) binding. Equilibrium dissociation constants (KD) and the maximal number of binding sites (Bmax) were determined using seven concentrations of unlabeled peptide in a competitive binding curve and calculated using a computerized nonlinear least squares fit to the mass-law equation of Munson and Rodbard, Munson, P. J. et al., Anal. Biochem., 107:220-239, 1980, as modified by McPhearson, G. A., J. of Pharm. Meth., 14:213-228, 1985.

The nature of series [3]: Stability of 131I-labeled peptides stored in saline. In kind it is physicochemical. The note with it: one week after labeling. The procedure: All specimen activity (μCi) was measured in a dose calibrator at least 30 minutes prior to intravenous injection. Radiolabeled peptide was injected through a peripheral arm vein in a free-flowing intravenous line. One week after labeling, only 30% of the ^131 I-labeled multi-tyrosinated peptides WOC-3A and WOC-3B compounds stored in saline had degraded.

For series [4], the system named is bronchioloalveolar carcinoma of the lung (somatostatin receptor-expressing tumors). In words: Biodistribution and dosimetry of 131I WOC-3A (1.6 mCi i.v.) in a human patient. In kind it is in vivo. The note with it: extrapolated for a dose of 1,500 mCi. Here is the method:
A batch of ^131 I WOC-3A (1.6 mCi) was made (Iso-Tex Corporation, Friendswood, TX) and its sterility and pyrogenicity tested at Iso-Tex. Radiolabeled WOC-3A was injected intravenously and the pharmacokinetics and biodistribution of the radiolabeled compound were calculated. The tumor/normal tissue ratio of distribution of radiolabeled WOC-3A was approximately 3:1 to 6:1.
Following injection of 1.6 mCi of ^131 I WOC-3A, the patient underwent three days of nuclear medicine scanning using a 3-headed SPECT camera as well as an ADAC camera. In addition, whole body radiation counts were obtained to calculate whole-body loss of radioisotope over the three day period. […] Bone marrow would receive in excess of 450 rads (a dose requiring bone marrow transplantation in 50% of patients). Thus, in preparation for bone marrow transplantation, the patient underwent bone marrow harvest to provide cells for reinfusion after WOC-3 therapy and sufficient clearance of the radiolabeled analog from the patient's circulation.

Series [5] has as its system bronchioloalveolar carcinoma of the lung. In words: Subcutaneous octreotide acetate therapy in a human patient. The note with it: 2 mg/day subcutaneous. From the text:
The patient is a person diagnosed with bronchioloalveolar carcinoma of the lung approximately four years ago. […] underwent a right upperlobectomy and intensive chemotherapy with multiple agents.

The mark [6] stands for this setting: IMR32 membranes, competitive binding, 17° C., 30 minutes.

Like-named read-outs stand apart in the source and are kept apart here. Positions of bridges follow the written chain, without caps; N, C: chain ends. Non-standard residues stand in square brackets, D forms with d. Residues, ends and D or L forms follow the SMILES beside them. Where only a bound is given, the exact number is not on record here.

T1 sequence (P30874 whole entry): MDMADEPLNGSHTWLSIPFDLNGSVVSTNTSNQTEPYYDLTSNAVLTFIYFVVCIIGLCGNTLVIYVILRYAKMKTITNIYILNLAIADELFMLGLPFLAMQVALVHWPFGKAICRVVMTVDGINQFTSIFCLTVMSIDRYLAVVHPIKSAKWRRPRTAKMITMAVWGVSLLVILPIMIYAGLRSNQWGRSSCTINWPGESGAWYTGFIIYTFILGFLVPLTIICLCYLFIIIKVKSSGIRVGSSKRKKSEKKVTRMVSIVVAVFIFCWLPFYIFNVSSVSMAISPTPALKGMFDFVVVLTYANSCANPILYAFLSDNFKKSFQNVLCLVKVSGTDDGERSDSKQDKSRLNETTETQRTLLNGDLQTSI

`CC(C)[C@@H]1NC(=O)[C@H](CCCCN)NC(=O)[C@@H](Cc2c[nH]c3ccccc23)NC(=O)[C@H](Cc2ccc(O)cc2)NC(=O)[C@@H](NC(=O)[C@H](N)Cc2ccc(O)cc2)CSSC[C@@H](C(=O)N[C@H](C(N)=O)[C@@H](C)O)NC1=O` [WOC-2A, cyclic-(D-tyrosine-cysteine-tyrosine-D-tryptophan-lysine-valine-cysteine-t hreonine-NH2)]: the 50% inhibitory concentration (IC50) – broadly, the point on the concentration scale where inhibition reaches its midpoint – in series [1] worked out at 4.84 ± 0.58 nM. In addition, the dissociation constant (Kd) (commonly the constant that tells how readily two partners part at equilibrium) in series [2] (setting [6]) is 5.73 ± 0.22 nM.
Turning to `C[C@@H](O)[C@H](NC(=O)[C@@H]1CSSC[C@H](NC(=O)[C@@H](Cc2ccc(O)cc2)NC(=O)[C@H](Cc2ccc(O)cc2)NC(=O)[C@H](Cc2ccc(O)cc2)NC(=O)[C@H](N)Cc2ccc(O)cc2)C(=O)N[C@@H](Cc2ccccc2)C(=O)N[C@H](Cc2c[nH]c3ccccc23)C(=O)N[C@@H](CCCCN)C(=O)N[C@@H]([C@@H](C)O)C(=O)N1)C(N)=O` [WOC-4, cyclic(D-tyrosine-tyrosine-tyrosine-D-tyrosine-cysteine-phenylalanine-D-tr yptophan-lysine-threonine-cysteine-threonine)] (H-[dY]YY[dY]CF[dW]KTCT-NH2; disulfide 5-10), the Kd in series [2] (setting [6]) was 1 nM.
In the case of `CC(C)[C@@H]1NC(=O)[C@H](CCCCN)NC(=O)[C@@H](Cc2c[nH]c3ccccc23)NC(=O)[C@H](Cc2ccc(O)cc2)NC(=O)[C@@H](NC(=O)[C@@H](Cc2ccc(O)cc2)NC(=O)[C@@H](N)Cc2ccc(O)cc2)CSSC[C@@H](C(=O)N[C@H](C(N)=O)[C@@H](C)O)NC1=O` [WOC-3B, cyclic(tyrosine-D-tyrosine-cysteine-tyrosine-D-tryptophan-lysine-valine-cy steine-threonine)] (H-Y[dY]CY[dW]KVCT-NH2; disulfide 3-8), the IC50 in series [1] is 0.66 ± 0.06 nM. The “Fraction of labeled peptide degraded” value in series [3] turned out to be 30%.
With `C[C@@H](O)[C@H](NC(=O)[C@@H]1CSSC[C@H](NC(=O)[C@@H](Cc2ccccc2)NC(=O)[C@H](CCCCNC(=O)[C@H](CCCCNC(=O)[C@H](CCCCNC(=O)[C@H](N)Cc2ccc(O)cc2)NC(=O)[C@H](N)Cc2ccc(O)cc2)NC(=O)[C@H](CCCCNC(=O)[C@H](N)Cc2ccc(O)cc2)NC(=O)[C@H](N)Cc2ccc(O)cc2)NC(=O)[C@H](CCCCNC(=O)[C@H](CCCCNC(=O)[C@H](N)Cc2ccc(O)cc2)NC(=O)[C@H](N)Cc2ccc(O)cc2)NC(=O)[C@H](CCCCNC(=O)[C@H](N)Cc2ccc(O)cc2)NC(=O)[C@H](N)Cc2ccc(O)cc2)C(=O)N[C@@H](Cc2ccccc2)C(=O)N[C@H](Cc2c[nH]c3ccccc23)C(=O)N[C@@H](CCCCN)C(=O)N[C@@H]([C@@H](C)O)C(=O)N1)C(N)=O` [WOC-8, cyclic[(D-tyrosine)8-(lysine)4-(lysine)2-lysine-cysteine-phenylalanine-D-tryptophan-lysine-threonine-cysteine-threonine]], in series [1], the IC50 came out at 2.46 ± 0.69 nM.
Take `CC(C)[C@@H]1NC(=O)[C@H](CCCCN)NC(=O)[C@@H](Cc2c[nH]c3ccccc23)NC(=O)[C@H](Cc2ccc(O)cc2)NC(=O)[C@@H](NC(=O)[C@H](N)Cc2ccc3ccccc3c2)CSSC[C@@H](C(=O)N[C@H](C(N)=O)[C@@H](C)O)NC1=O` [LANREOTIDE ®, Dβ-Nal-Cys-Tyr-D-Trp-Lys-Val-Cys-Thr(NH2), reference compound]: the IC50 in series [1] was found to be 0.4 ± 0.1 nM. This molecule registered a Kd in series [2] of 1.05 ± 0.51 nM.
Regarding `CC(C)[C@@H]1NC(=O)[C@H](CCCCN)NC(=O)[C@@H](Cc2c[nH]c3ccccc23)NC(=O)[C@H](Cc2ccc(O)cc2)NC(=O)[C@@H](NC(=O)[C@@H](Cc2ccc(O)cc2)NC(=O)[C@H](C)NC(=O)[C@@H](N)Cc2ccc(O)cc2)CSSC[C@@H](C(=O)N[C@H](C(N)=O)[C@@H](C)O)NC1=O` [WOC-3A, cyclic(tyrosine-alanine-D-tyrosine-cysteine-tyrosine-D-tryptophan-lysine-v aline-cysteine-threonine)] (H-YA[dY]CY[dW]KVCT-NH2; disulfide 4-9), the IC50 in series [1] was 0.96 ± 0.01 nM. Besides, the “Displacement of bound radioactivity by unlabeled ligand” value in series [2] (10,000-fold excess of unlabeled WOC-3A or native somatostatin) was “no radioactivity was displaced”. In addition, the “Total binding of radiolabeled analog to IMR-32 membranes” value in series [2] (radiolabeled analog) is “high levels of total binding”. Moreover, the “Fraction of labeled peptide degraded” value in series [3] worked out at 30%. Also, in series [4], the “Radiation dose to bone marrow” value is greater than 450 rads.
`C[C@@H](O)[C@@H]1NC(=O)[C@H](CCCCN)NC(=O)[C@@H](Cc2c[nH]c3ccccc23)NC(=O)[C@H](Cc2ccccc2)NC(=O)[C@@H](NC(=O)[C@H](N)Cc2ccccc2)CSSC[C@@H](C(=O)N[C@H](CO)[C@@H](C)O)NC1=O` [octreotide acetate, D-Phe-Cys-Phe-D-Trp-Lys-Thr-Cys-Thr(ol)]: the Tolerability of therapy entry in series [5] was “tolerated this therapy well”. Further, the “Decrease in tumor volume” value in series [5] (initial response, tumors later progressed) is given as 25%.
With `C[C@H](N)C(=O)NCC(=O)N[C@H]1CSSC[C@@H](C(=O)O)NC(=O)[C@H](CO)NC(=O)[C@H]([C@@H](C)O)NC(=O)[C@H](Cc2ccccc2)NC(=O)[C@H]([C@@H](C)O)NC(=O)[C@H](CCCCN)NC(=O)[C@H](Cc2c[nH]c3ccccc23)NC(=O)[C@H](Cc2ccccc2)NC(=O)[C@H](Cc2ccccc2)NC(=O)[C@H](CC(N)=O)NC(=O)[C@H](CCCCN)NC1=O` [Somatostatin, reference compound], in series [1], the concentration for half-maximal inhibition (IC50) amounted to 0.46 ± 0.04 nM.
In turn, `C[C@@H](O)[C@H](NC(=O)[C@@H]1CSSC[C@H](NC(=O)[C@@H](Cc2ccc(O)cc2)NC(=O)[C@@H](N)Cc2ccc(O)cc2)C(=O)N[C@@H](Cc2ccccc2)C(=O)N[C@H](Cc2c[nH]c3ccccc23)C(=O)N[C@@H](CCCCN)C(=O)N[C@@H]([C@@H](C)O)C(=O)N1)C(N)=O` [WOC-2B, cyclic-(tyrosine-D-tyrosine-cysteine-phenylalanine-D-tryptophan-lysine-thr eonine-cysteine-threonine-NH2)] (H-Y[dY]CF[dW]KTCT-NH2; disulfide 3-8) registered a Kd in series [2] (setting [6]) of 1.2 nM.
